Measured values as given in PMC5605781 (Journal of medicinal chemistry, 2017).

Legend:
HIV-1 = conditions: antiviral activity; cited from earlier work
[1] = system: seven HIV-1 variants selected in vitro with SQV, APV, LPV, IDV, NFV, ATV, TPV; experiment: microbe, parasite or virus in culture; type: cell-based; conditions: Human immunodeficiency virus 1, read-out: IC50 values, range over variants
HIV-1NL4-3 = experiment: Antiviral p24 assay in MT-4 cells, wild-type HIV-1NL4-3; type: cell-based; conditions: wild-type HIV-1NL4-3, compared to DRV

COc1ccc(S(=O)(=O)N(CC(C)C)C[C@@H](O)[C@H](Cc2ccccc2)NC(=O)O[C@H]2CO[C@H]3OCC[C@H]32)cc1 [Inhibitor 3]
EC50 (HIV-1): 0.5 nM

CC(C)CN(C[C@@H](O)[C@H](Cc1ccccc1)NC(=O)O[C@H]1C2CO[C@H]3OCC1C3C2)S(=O)(=O)c1ccc2nc(NC3CC3)sc2c1 (stereo partly drawn) [Inhibitor 5, (3S,7aS,8S)-Hexahydro-4H-3,5-methanofuro[2,3-b]pyran-8-yl ((2S,3R)-4-((2-(cyclopropylamino)-N-isobutylbenzo[d]thiazole)-6-sulfonamido)-3-hydroxy-1-phenylbutan-2-yl)carbamate]
IC50 [1]: 0.0026 to 0.27 nM | factor of more potent block of replication compared to DRV (HIV-1NL4-3): 10
